The values that follow are results of earlier work, collected in patent US9180191B2, “Treatment of suicidal ideation or behavior using inhibitors of nicotinic acetylcholine receptors” (UNIVERSITY OF SOUTH FLORIDA, priority 2009, dated 2015).

The conditions of data set [1]: for risk of neuroleptic malignant syndrome: patients receiving the drug.
Data set [2] has as its system brain-derived neurotrophic factor (BDNF). The settings on record: in vivo.
The conditions of data set [3]: for teratogen class: FDA Approved Labeling Text.
Data set [4] has as its system physiological response to nicotine. The conditions noted are these: chronic administration, rodents.
The subject of data set [5] is serotonergic, dopaminergic, and a-adrenergic receptors.
The test system of data set [6] is muscarinic cholinergic receptors.
Experiment in data set [7]: not given
The source holds these as a separate data set.

Experiment in data set [8]: not given
This is another data set of the same source.

For data set [9] the following is noted: major depressive disorder, inadequate response to prior antidepressant, two 6 week studies.
For data set [10] the following is noted: smoking cessation.
The conditions of data set [11]: for reducing suicidal ideation versus placebo: week 8 (endpoint), p<0.001.
For data set [12] the following is noted: treatment resistant psychotic bipolar patients, 24 months of observation.
Experiment in data set [13]: not given
This is another data set of the same source.

The conditions of data set [14]: bipolar I or II disorder, acute bipolar depression.
For data set [15] the following is noted: schizophrenic patients with persistent ongoing symptoms.
The mark [16] stands for this setting: bipolar I, manic and mixed symptoms.
Where [17] appears, read: clinical trials in schizophrenia.

Where two headings read alike, the source gives them in different places.

Take `O=C([O-])[O-].[Li+].[Li+]` [lithium, Lithium carbonate]: the “most commonly observed side effects” value in [1] (lithium, population not given) was “tremor, diarrhea, polydipsia, polyuria and nausea”. For the same compound, in data set [2], the “effect on brain BDNF levels” value is “increase brain BDNF levels”. Further, under “after discontinuing lithium”, the “fatality rate due to suicide after discontinuing lithium compared to the rate during lithium maintenance” value was 12.6 times higher. Besides, the “incidence of attempted and completed suicide compared to those who did not receive lithium” value (long-term lithium treatment) is reported as 13 fold lower. Further, where the note is “recurrent unipolar major depressive disorder and bipolar disorder”, the effect on suicidality result is “consistently reduces suicidality”. Also, the use in pregnancy entry in data set [3] (pregnancy) is recorded as “associated with neural tube defects”. For the same compound, the “physiological response to nicotine” value in data set [4] is “decreases their physiological response to nicotine”.
For the compound `CN1CC2c3ccccc3Oc3ccc(Cl)cc3C2C1` (stereo not shown) [asenapine], the “affinity for serotonergic, dopaminergic, and a-adrenergic receptors” value in data set [5] is recorded as “high affinity”. Also, the “affinity for muscarinic cholinergic receptors” value in [6] is on record as “no appreciable affinity”. In data set [7] (setting [16]), the “efficacy versus olanzapine in extended use” value is given as “efficacy comparable to olanzapine”; the “efficacy versus placebo in acute use” value was “rapid and significant advantage compared to placebo”. For the same compound, the “efficacy versus placebo as adjunctive therapy” value in data set [7] (bipolar patients with inadequate improvement on mood stabilizer monotherapy) was “superior to placebo”. Moreover, the “profile and tolerability with long-term use” value in [7] (long-term use) is “favorable profile and tolerability”. Moreover, in data set [1] (setting [17]), the “most commonly observed side effects” value was “anxiety, somnolence, EPS, dizziness, constipation, nausea, dyspepsia, rhinitis, rash, and tachycardia”. Besides, the “risk of neuroleptic malignant syndrome” value in data set [1] is on record as “extremely rare”. Moreover, the teratogen class result in data set [3] is reported as “Class-C teratogen”.
`O=C1CCc2ccc(OCCCCN3CCN(c4cccc(Cl)c4Cl)CC3)cc2N1` [aripiprazole]: the “efficacy versus placebo in acute use” value in data set [8] (bipolar I, manic and mixed symptoms, 3 week trials) was “rapid and significant advantage compared to placebo”. Also, the “efficacy versus placebo as adjunctive therapy (with lithium or valproate)” value in [8] (bipolar I, manic or mixed state, inadequate improvement on mood stabilizer monotherapy) is “superior to placebo”. In data set [8] (long-term use up to 6 months), the “profile and tolerability with long-term use” value was “favorable profile and tolerability”. For the same compound, in [9], the “efficacy versus placebo as adjunctive therapy with antidepressants” value was “superior to placebo”. Moreover, the “most commonly observed side effects” value in [1] (clinical trials in mood disorders (bipolar I disorder and major depressive disorder)) is “akathisia, sedation, restlessness, tremor, insomnia, constipation, fatigue, blurred vision and extrapyramidal disorder”. In data set [1], the “risk of neuroleptic malignant syndrome” value is recorded as “extremely rare”. In addition, the teratogen class result in [3] is on record as “Class-C teratogen”.
For `c1cnc2cc3c(cc2n1)[C@@H]1CNC[C@H]3C1` [varenicline], the “risk of suicidality relative to other treatments (i.e., buproprion, Zyban)” value in [10] is listed as “increase in the risk of suicidality”.
`OCCOCCN1CCN(C2=Nc3ccccc3Sc3ccccc32)CC1` [quetiapine]: in [1] (setting [17]), the “most commonly observed side effects” value is “anxiety, somnolence, EPS, dizziness, constipation, nausea, dyspepsia, rhinitis, rash, and tachycardia”. In [1], the “risk of neuroleptic malignant syndrome” value was “extremely rare”. Besides, the “reducing suicidal ideation versus placebo” value in data set [11] (300 mg/day) and in data set [11] (600 mg/day) was “more effective than placebo” each time. Also, the “mean percent reduction in suicidal thoughts” value in data set [11] (542 outpatients, bipolar I and II depression, placebo approximately 30%) is recorded as “approximately 60%”. In data set [11] (bipolar I and II depression), the “reduction in suicidal ideation relative to placebo, item 10 on the MADRS” value is “approximately twice”. Further, the suicidality result in data set [12] is recorded as “effective in lowering suicidality”. For the same compound, the “efficacy versus placebo in combination with divalproex” value in data set [13] (adolescent patients with acute bipolar I mania) is recorded as “superior to placebo”. Moreover, the “efficacy versus placebo in combination with lithium or divalproex” value in [13] (hospitalized adult patients with acute mania) is “superior to placebo”. Also, the “efficacy versus placebo as monotherapy in acute bipolar mania” value in [13] (hospitalized patients with bipolar I disorder, two 12-week trials) is given as “superior to placebo”. For the same compound, the “reducing depressive and anxiety symptoms versus placebo” value in data set [14] is “superior to placebo”. Further, in data set [15], the “depressive symptoms versus haloperidol” value is given as “reduce depressive symptoms more than haloperidol”. In [3], the teratogen class entry is “Class-C teratogen”.
